This note sets out measurements from patent publication US20250197394A1, “ANTIBACTERIALS BASED ON MONOCYCLIC FRAGMENTS COUPLED TO AMINOPIPERIDINE NAPHTHYRIDINE SCAFFOLD” (UNIVERZA V LJUBLJANI, priority 2019, published 2025).

The test system of data set [1] is methicillin-resistant Staphylococcus pseudintermedius S-84. The experiment in a line: MIC broth microdilution, MRSP S-84. In kind it is cell-based. Particulars: 20 hours of incubation. How it is done:
(§1) Minimal inhibitory concentrations were determined by the broth microdilution method in 96-wells plate format following the Clinical and Laboratory Standards Institute (CLSI) guidelines given in “Methods for Dilution Antimicrobial Susceptibility Tests for Bacteria That Grow Aerobically, Approved Standard, 10th Edition, CLSI document M07-A10, Wayne, PA: Clinical and Laboratory Standards Institute, USA, 2015” and European Committee on Antimicrobial Susceptibility Testing (EUCAST) recommendations given in “The European Committee on Antimicrobial Susceptibility Testing, Breakpoint tables for interpretation of MICs and zone diameters, Version 5.0, 2015”. All exemplified compounds were tested on several Gram-positive (S. aureus, methicillin-resistant Staphylococcus aureus (MRSA), methicillin-resistant
(§2) Staphylococcus schleiferi subspecies coagulans, methicillin-resistant Staphylococcus pseudintermedius
(§3) (S-48, S-84, S-35, S-52, S-40 and S-51), Streptococcus agalactiae and Enterococcus faecalis) and Gram-negative bacteria (E. coli, Salmonella Alachua and Pseudomonas aeruginosa).
(§4) The MICs were visually determined as the lowest compound concentration inhibiting bacterial growth after 20 hours of incubation time. […] MIC values are represented in Table 2.

The subject of data set [2] is methicillin-resistant Staphylococcus pseudintermedius S-52. The data set can be described thus: MIC broth microdilution, MRSP S-52. In kind it is cell-based. The settings on record: 20 hours of incubation. The protocol:
as §1, §2, §3, §4
Background: In broth dilution the organism is exposed to a series of concentrations in liquid medium.

Data set [3] concerns methicillin-resistant Staphylococcus pseudintermedius S-51. The data set can be described thus: MIC broth microdilution, MRSP S-51. The format is cell-based. The settings on record: 20 hours of incubation. The protocol:
as §1, §2, §3, §4

A further data set relates to E. faecalis DRK 057. The experiment in a line: MIC broth microdilution, E. faecalis. The format is cell-based. The settings on record: Enterococcus faecalis, DRK057, 20 hours of incubation. The protocol: as §1, §2, §3, §4
Data set [4] concerns the target T1, Escherichia coli DNA gyrase (Escherichia coli, UniProt P0AES4+P0AES6).
T1 construct: purchased Inspiralis (Norwich, UK)
The data set can be described thus: Gyrase Supercoiling High Throughput Plate assay (E. coli). The format is biochemical. Particulars: mean of two to four independent measurements.

The subject of the next data set is P. aeruginosa RDK 184. The experiment in a line: MIC broth microdilution, P. aeruginosa. The format is cell-based. The settings on record: Pseudomonas aeruginosa, RDK184, 20 hours of incubation. How it is done: as §1, §2, §3, §4
Data set [5] has as its target Staphylococcus aureus DNA gyrase (Staphylococcus aureus, UniProt P0A0K8+P20831). The data set can be described thus: biochemical.
For a further data set, the system named is C. jejuni RDK-135. The experiment in a line: MIC broth microdilution, C. jejuni. In kind it is cell-based. The settings on record: Campylobacter jejuni, RDK135, 20 hours of incubation. The protocol: as §1, §4
Data set [6] relates to methicillin-resistant Staphylococcus pseudintermedius S-35. The data set can be described thus: MIC broth microdilution, MRSP S-35. The format is cell-based. The settings on record: 20 hours of incubation. How it is done: as §1, §2, §3, §4
A further data set has as its system HUVEC (ATCC) cell line. The experiment in a line: Cytotoxicity, metabolic cell activity (CellTiter 96 AQueous One), HUVEC. The format is cell-based. The settings on record: two independent experiments; for mean percentage of metabolic activity of treated cells, HUVEC 1 μM: compound 1 μM; for mean percentage of metabolic activity of treated cells, HUVEC 50 μM: compound 50 μM. The protocol: (§5) Cytotoxicity was assessed in assay measuring metabolic cell activity performed on HepG2 (ATCC) and HUVEC (ATCC) cell lines according to the protocol of CellTiter 96® AQueous One Solution Cell Proliferation Assay 2018, Promega, USA, 2001. The method involved absorbance measurements after the treatment of cells with compounds at concentrations 1 μM and 50 μM.
(§6) The results are given as the mean percentage of metabolic activity of treated cells from two independent experiments and are represented in Table 3.

Data set [7] has as its system methicillin-resistant Staphylococcus pseudintermedius S-48. The experiment in a line: MIC broth microdilution, MRSP S-48. Particulars: 20 hours of incubation. In kind it is cell-based. The protocol:
as §1, §2, §3, §4

Data set [8] concerns methicillin-resistant Staphylococcus pseudintermedius S-40. The experiment in a line: MIC broth microdilution, MRSP S-40. The format is cell-based. Particulars: 20 hours of incubation. The protocol: as §1, §2, §3, §4
Data set [9] has as its system methicillin-resistant Staphylococcus schleiferi subspecies coagulans. The experiment in a line: MIC broth microdilution, MRSS. In kind it is cell-based. The settings on record: 20 hours of incubation. The protocol:
as §1, §2, §3, §4

In data set [10] the test system is methicillin-resistant Staphylococcus aureus (MRSA). The data set can be described thus: MIC broth microdilution, MRSA. The format is cell-based. The settings on record: 20 hours of incubation. The protocol: as §1, §2, §3, §4
In another data set the test system is HepG2 (ATCC) cell line. The experiment in a line: Cytotoxicity, metabolic cell activity (CellTiter 96 AQueous One), HepG2. The format is cell-based. Particulars: two independent experiments; for mean percentage of metabolic activity of treated cells, HepG2 1 μM: HepG2, compound 1 μM; for mean percentage of metabolic activity of treated cells, HepG2 50 μM: HepG2, compound 50 μM. How it is done:
as §5, §6

Another data set concerns S. aureus. The experiment in a line: MIC broth microdilution, S. aureus. In kind it is cell-based. The settings on record: Staphylococcus aureus, 20 hours of incubation. The protocol:
as §1, §2, §3, §4

In brackets after ≈: the same amount, converted by molar mass. Where only a bound is given, the exact number is not on record here.

Sequence of Staphylococcus aureus DNA gyrase (P20831 whole entry): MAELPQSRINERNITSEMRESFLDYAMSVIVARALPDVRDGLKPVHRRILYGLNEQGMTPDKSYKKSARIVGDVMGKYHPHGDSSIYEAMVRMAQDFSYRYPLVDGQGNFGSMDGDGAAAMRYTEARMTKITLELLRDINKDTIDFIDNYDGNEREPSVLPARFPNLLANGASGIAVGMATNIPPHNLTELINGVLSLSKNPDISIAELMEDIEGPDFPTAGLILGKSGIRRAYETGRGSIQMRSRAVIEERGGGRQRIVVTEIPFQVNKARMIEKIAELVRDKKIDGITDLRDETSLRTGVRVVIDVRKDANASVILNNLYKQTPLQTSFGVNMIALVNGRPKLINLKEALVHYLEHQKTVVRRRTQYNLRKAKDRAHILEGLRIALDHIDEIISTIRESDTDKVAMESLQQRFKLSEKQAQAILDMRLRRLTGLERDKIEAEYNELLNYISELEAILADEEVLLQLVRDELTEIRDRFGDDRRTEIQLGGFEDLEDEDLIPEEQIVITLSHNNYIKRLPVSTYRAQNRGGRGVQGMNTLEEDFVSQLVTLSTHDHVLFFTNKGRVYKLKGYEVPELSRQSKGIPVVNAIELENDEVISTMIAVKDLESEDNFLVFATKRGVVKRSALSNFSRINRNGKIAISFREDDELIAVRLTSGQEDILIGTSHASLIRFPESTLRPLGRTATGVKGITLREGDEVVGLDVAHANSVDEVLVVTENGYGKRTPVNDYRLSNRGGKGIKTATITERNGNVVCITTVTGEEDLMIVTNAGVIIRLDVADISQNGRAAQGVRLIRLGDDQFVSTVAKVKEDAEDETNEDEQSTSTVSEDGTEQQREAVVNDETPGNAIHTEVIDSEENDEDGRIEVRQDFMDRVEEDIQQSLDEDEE
Sequence of Staphylococcus aureus DNA gyrase (P0A0K8 whole entry): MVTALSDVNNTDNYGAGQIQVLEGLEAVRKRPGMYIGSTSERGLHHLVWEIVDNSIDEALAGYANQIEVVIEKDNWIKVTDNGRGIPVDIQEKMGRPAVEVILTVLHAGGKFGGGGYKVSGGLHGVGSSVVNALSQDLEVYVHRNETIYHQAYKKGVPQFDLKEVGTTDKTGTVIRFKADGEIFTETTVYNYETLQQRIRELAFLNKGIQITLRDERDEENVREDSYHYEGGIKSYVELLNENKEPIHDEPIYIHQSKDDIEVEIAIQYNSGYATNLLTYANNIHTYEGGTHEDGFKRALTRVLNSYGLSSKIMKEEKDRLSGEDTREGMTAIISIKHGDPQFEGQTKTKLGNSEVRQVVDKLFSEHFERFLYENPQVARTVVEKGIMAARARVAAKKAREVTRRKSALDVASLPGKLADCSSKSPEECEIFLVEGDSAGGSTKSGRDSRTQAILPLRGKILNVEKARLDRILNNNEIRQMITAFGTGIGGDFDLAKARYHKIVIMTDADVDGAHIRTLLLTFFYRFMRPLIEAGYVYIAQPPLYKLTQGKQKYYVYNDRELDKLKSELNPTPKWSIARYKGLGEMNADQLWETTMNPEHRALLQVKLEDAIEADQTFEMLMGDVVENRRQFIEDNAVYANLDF
T1 sequence (P0AES4 whole entry, one chain of several): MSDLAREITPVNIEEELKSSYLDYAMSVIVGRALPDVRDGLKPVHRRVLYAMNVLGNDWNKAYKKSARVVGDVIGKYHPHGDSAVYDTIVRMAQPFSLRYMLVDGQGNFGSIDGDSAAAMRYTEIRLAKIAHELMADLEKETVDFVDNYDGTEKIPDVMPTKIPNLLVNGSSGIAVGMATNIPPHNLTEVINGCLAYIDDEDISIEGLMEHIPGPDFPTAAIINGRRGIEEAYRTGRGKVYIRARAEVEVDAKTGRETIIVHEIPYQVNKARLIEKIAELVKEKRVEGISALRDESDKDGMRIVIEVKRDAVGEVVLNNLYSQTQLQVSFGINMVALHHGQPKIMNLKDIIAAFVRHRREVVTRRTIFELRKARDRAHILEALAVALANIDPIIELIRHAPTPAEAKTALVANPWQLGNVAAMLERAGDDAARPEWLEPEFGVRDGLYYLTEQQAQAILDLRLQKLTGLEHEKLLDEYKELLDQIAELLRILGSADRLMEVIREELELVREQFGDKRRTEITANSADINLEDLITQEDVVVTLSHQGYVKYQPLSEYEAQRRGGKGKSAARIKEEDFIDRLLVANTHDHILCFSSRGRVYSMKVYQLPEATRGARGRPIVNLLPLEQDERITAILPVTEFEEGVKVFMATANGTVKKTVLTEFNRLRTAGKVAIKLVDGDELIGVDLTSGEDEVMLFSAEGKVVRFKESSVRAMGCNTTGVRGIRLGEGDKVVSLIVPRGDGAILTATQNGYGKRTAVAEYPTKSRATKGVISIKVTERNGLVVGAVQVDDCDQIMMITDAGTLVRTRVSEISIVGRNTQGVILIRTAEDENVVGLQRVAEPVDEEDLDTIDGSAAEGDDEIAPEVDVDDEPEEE

A word on the MIC: it is the smallest concentration in the dilution series that meets the test's criterion for growth inhibition. A high value points to a need for much substance. In general, IC50 refers to the midpoint of a concentration-inhibition curve. The low end stands for greater potency, the high end for weaker potency. As to `COc1ccc2nccc(CCN3CCC(NCc4ccc(N(C)C)cc4)CC3)c2n1` [Compound C4, N-(4-(dimethylamino)benzyl)-1-(2-(6-methoxy-1,5-naphthyridin-4-yl)ethyl)piperidin-4-amine], the minimal inhibitory concentration (MIC) in data set [1] is 0.125 µg/mL (≈ 0.298 µM); in data set [2] it was 0.5 µg/mL (≈ 1.19 µM); in data set [3] it was 0.25 µg/mL (≈ 0.596 µM); in the data set on E. faecalis DRK 057, 1 µg/mL (≈ 2.38 µM); against P. aeruginosa RDK 184, over 128 µg/mL; against C. jejuni RDK-135 it was 4 µg/mL (≈ 9.53 µM). For the same molecule, the minimum inhibitory concentration (MIC) was found to be 0.25 µg/mL (≈ 0.596 µM) in [6]; 0.25 µg/mL (≈ 0.596 µM) in data set [7]; 0.125 µg/mL (≈ 0.298 µM) in data set [8]; 0.015 µg/mL (≈ 0.0358 µM) in data set [9]; 0.025 µg/mL (≈ 0.0596 µM) in data set [10]. The IC50 in data set [4] came out at 11900 nM; in data set [5] it was 67 nM. In the data set with HUVEC (ATCC) cell line, the “mean percentage of metabolic activity of treated cells, HUVEC 1 μM” value (“mean percentage … HUVEC 1 μM” below) was 105.9 ± 0.9%. Moreover, the “mean percentage of metabolic activity of treated cells, HUVEC 50 μM” value (“mean percentage … HUVEC 50 μM” for short) in the data set with HUVEC (ATCC) cell line amounted to 0.1 ± 0.6%. Besides, the “mean percentage of metabolic activity of treated cells, HepG2 1 μM” value (shortened to “mean percentage … HepG2 1 μM”) in the data set on HepG2 (ATCC) cell line came out at 102.5 ± 2.3%. Besides, the “mean percentage of metabolic activity of treated cells, HepG2 50 μM” value (shortened to “mean percentage … HepG2 50 μM”) in the data set with HepG2 (ATCC) cell line was found to be 0.8 ± 1.0%.
On to `COc1ccc2nccc(CCN3CCC(NCc4ccc(Cl)cc4)CC3)c2n1` [Compound C6, N-(4-chlorobenzyl)-1-(2-(6-methoxy-1,5-naphthyridin-4-yl)ethyl)piperidin-4-amine], for which the minimal inhibitory concentration (MIC) in data set [1] is 0.25 µg/mL (≈ 0.608 µM); in the data set on S. aureus, 0.125 µg/mL (≈ 0.304 µM); in [2] it was 0.5 µg/mL (≈ 1.22 µM); in [3], 0.25 µg/mL (≈ 0.608 µM); against E. faecalis DRK 057 it was 1 µg/mL (≈ 2.43 µM); against P. aeruginosa RDK 184, over 128 µg/mL. The MIC against C. jejuni RDK-135 was 2 µg/mL (≈ 4.87 µM); in [6], 0.25 µg/mL (≈ 0.608 µM); in [7] it was 0.25 µg/mL (≈ 0.608 µM); in data set [8], 0.25 µg/mL (≈ 0.608 µM); in data set [9] it was at most 0.0078 µg/mL. In addition, the “mean percentage … HUVEC 1 μM” value in the data set on HUVEC (ATCC) cell line worked out at 86.1 ± 17.1%. Also, the “mean percentage … HUVEC 50 μM” value in the data set on HUVEC (ATCC) cell line was −0.6 ± 0.4%. Also, the “mean percentage … HepG2 1 μM” value in the data set with HepG2 (ATCC) cell line turned out to be 84.5 ± 11.1%. Also, in the data set with HepG2 (ATCC) cell line, the “mean percentage … HepG2 50 μM” value is recorded as 0.9 ± 0.1%.
`COc1ccc2nccc(CCN3CCC(NCc4ccc(I)cc4)CC3)c2n1` [Compound C8, N-(4-iodobenzyl)-1-(2-(6-methoxy-1,5-naphthyridin-4-yl)ethyl)piperidin-4-amine]: the minimal inhibitory concentration (MIC) turned out to be 0.015 µg/mL (≈ 0.0299 µM) in data set [1]; 0.062 µg/mL (≈ 0.123 µM) in data set [2]; 0.0078 µg/mL (≈ 0.0155 µM) in [3]; 1 µg/mL (≈ 1.99 µM) with E. faecalis DRK 057; 32 µg/mL (≈ 63.7 µM) in the data set with P. aeruginosa RDK 184; 0.015 µg/mL (≈ 0.0299 µM) in the data set on C. jejuni RDK-135. Besides, the minimal inhibitory concentration (MIC) in data set [6] is 0.15 µg/mL (≈ 0.299 µM); in data set [7], 0.015 µg/mL (≈ 0.0299 µM); in [8], at most 0.0078 µg/mL; in [9] it was 0.002 µg/mL (≈ 0.00398 µM); in data set [10], 0.015 µg/mL (≈ 0.0299 µM). In [5], this molecule displayed an IC50 of 11 nM. The “mean percentage … HUVEC 1 μM” value in the data set on HUVEC (ATCC) cell line is reported as 108.0 ± 6.6%. Besides, the “mean percentage … HUVEC 50 μM” value in the data set on HUVEC (ATCC) cell line is given as −0.3 ± 0.5%. The “mean percentage … HepG2 1 μM” value with HepG2 (ATCC) cell line worked out at 102.6 ± 2.3%. Further, the “mean percentage … HepG2 50 μM” value in the data set on HepG2 (ATCC) cell line was 0.5 ± 0.3%.
With `C=CCn1cc(CNC2CCN(CCc3ccnc4ccc(OC)nc34)CC2)cn1` [Compound C11, N-((1-allyl-^1H-pyrazol-4-yl)methyl)-1-(2-(6-methoxy-1,5-naphthyridin-4-yl)ethyl)piperidin-4-amine], the minimum inhibitory concentration (MIC) was under 1 µg/mL in data set [1]; 4 µg/mL (≈ 9.84 µM) in data set [2]; 2 µg/mL (≈ 4.92 µM) in [3]; 8 µg/mL (≈ 19.7 µM) against E. faecalis DRK 057; over 128 µg/mL in the data set with P. aeruginosa RDK 184; 8 µg/mL (≈ 19.7 µM) with C. jejuni RDK-135. Also, the MIC was 2 µg/mL (≈ 4.92 µM) in [6]; 2 µg/mL (≈ 4.92 µM) in data set [7]; 1 µg/mL (≈ 2.46 µM) in data set [8]; 0.125 µg/mL (≈ 0.307 µM) in data set [9]; 2 µg/mL (≈ 4.92 µM) in [10]. In addition, the IC50 stood at 16700 nM in data set [4] and 1100 nM in [5]. In addition, in the data set with HUVEC (ATCC) cell line, the “mean percentage … HUVEC 1 μM” value came out at 88.6 ± 21.2%. In addition, in the data set with HUVEC (ATCC) cell line, the “mean percentage … HUVEC 50 μM” value was determined as 84.2 ± 19.5%. Besides, the “mean percentage … HepG2 1 μM” value with HepG2 (ATCC) cell line amounted to 108.5 ± 6.3%. The “mean percentage … HepG2 50 μM” value with HepG2 (ATCC) cell line worked out at 77.0 ± 2.4%.
